Measured values as given in ChEMBL document CHEMBL1201862, “PubChem BioAssay data set” (2004).
The source made the active and inactive calls.

Assays:
[1] = reduction of Shn3 3'UTR-driven luciferase in osteoblasts – cell-based, Clone20 osteoblasts, firefly luciferase, cherry-picked, dose response (AID 624132); assay type: functional;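 note: firefly luciferase luminescence from reporter carrying the Shn3 3'UTR in osteoblasts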
[2] = non-specific 3'UTR reporter inhibition in Clone20-Shn3RL – cell-based, Renilla luciferase, cherry-picked, counter-screen for Shn3 inhibitor project, dose response (AID 624133); assay type: functional
Genome polyprotein = Genome polyprotein (dengue virus type 2, UniProt P29990); experiment: flavivirus cap methylation enzyme inhibition – biochemical, confirmation dose response, primary screen (AID 588689); assay type: functional
Genome polyprotein, sequence (P29990 2492-3391 limits assumed): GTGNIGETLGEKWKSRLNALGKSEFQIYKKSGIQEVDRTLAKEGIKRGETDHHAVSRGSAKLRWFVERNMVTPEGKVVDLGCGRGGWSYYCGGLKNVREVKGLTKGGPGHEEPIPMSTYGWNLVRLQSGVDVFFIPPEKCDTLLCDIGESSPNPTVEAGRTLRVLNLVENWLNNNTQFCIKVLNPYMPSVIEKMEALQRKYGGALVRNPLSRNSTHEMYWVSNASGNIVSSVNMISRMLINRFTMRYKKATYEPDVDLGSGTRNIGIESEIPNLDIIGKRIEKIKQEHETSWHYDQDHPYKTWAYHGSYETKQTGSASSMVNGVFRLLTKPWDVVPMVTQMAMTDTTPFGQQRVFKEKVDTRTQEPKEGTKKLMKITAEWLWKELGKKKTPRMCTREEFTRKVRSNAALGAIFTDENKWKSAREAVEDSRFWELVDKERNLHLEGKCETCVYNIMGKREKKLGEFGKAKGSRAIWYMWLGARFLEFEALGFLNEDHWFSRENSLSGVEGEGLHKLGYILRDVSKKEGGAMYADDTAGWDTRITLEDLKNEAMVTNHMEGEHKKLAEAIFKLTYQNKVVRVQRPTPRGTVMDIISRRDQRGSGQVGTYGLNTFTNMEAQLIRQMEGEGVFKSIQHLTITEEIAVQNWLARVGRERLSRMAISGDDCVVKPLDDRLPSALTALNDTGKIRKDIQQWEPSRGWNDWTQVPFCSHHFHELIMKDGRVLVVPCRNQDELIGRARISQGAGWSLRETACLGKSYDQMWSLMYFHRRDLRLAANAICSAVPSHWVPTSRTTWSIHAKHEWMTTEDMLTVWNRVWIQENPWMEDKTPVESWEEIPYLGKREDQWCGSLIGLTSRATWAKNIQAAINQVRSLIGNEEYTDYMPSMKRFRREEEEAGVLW

Leucine aminopeptidase = biological target: T1, Leucine aminopeptidase (Plasmodium falciparum 3D7, UniProt Q8IL11); experiment: P. falciparum M17LAP inhibitors, primary screen, biochemical, fluorogenic H-Leu-NHMec substrate, 1536-well (AID 1619); assay type: functional
T1 sequence (Q8IL11 whole entry): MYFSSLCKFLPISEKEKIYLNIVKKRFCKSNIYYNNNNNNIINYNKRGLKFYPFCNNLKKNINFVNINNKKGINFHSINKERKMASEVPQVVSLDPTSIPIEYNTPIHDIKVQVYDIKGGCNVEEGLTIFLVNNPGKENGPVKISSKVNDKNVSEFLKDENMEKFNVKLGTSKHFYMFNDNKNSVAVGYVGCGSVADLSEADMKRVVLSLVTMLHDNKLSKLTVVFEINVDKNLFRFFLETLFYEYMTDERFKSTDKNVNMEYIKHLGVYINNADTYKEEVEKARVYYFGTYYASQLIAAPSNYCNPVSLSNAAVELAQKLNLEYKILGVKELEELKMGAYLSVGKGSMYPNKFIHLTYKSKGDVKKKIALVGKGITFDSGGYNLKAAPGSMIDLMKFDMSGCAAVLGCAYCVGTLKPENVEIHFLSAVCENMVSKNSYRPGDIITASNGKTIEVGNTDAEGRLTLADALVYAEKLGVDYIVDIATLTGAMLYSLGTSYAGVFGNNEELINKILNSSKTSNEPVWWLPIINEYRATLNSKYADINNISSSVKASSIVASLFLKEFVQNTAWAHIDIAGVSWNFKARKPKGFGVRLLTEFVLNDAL

[3] = biological target: Induced myeloid leukemia cell differentiation protein Mcl-1 (Homo sapiens, UniProt Q07820); assay type: functional
Induced myeloid leukemia cell differentiation protein Mcl-1, sequence (Q07820 whole entry): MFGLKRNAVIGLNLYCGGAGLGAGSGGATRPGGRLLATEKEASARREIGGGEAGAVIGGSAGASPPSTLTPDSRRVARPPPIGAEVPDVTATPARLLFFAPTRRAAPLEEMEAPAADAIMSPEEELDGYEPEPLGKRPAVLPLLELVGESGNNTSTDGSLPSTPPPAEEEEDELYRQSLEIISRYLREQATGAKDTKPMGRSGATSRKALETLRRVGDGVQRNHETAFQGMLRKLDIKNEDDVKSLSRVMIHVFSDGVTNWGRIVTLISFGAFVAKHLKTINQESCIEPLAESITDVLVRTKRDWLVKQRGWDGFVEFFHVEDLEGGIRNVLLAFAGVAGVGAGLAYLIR

Cytochrome P450 3A4 = Cytochrome P450 3A4 (Homo sapiens, UniProt P08684); details: Potency;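 note: confirmatory qHTS run detecting inhibitors and substrates of CYP3A4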
Cytochrome P450 3A4, sequence (P08684 whole entry): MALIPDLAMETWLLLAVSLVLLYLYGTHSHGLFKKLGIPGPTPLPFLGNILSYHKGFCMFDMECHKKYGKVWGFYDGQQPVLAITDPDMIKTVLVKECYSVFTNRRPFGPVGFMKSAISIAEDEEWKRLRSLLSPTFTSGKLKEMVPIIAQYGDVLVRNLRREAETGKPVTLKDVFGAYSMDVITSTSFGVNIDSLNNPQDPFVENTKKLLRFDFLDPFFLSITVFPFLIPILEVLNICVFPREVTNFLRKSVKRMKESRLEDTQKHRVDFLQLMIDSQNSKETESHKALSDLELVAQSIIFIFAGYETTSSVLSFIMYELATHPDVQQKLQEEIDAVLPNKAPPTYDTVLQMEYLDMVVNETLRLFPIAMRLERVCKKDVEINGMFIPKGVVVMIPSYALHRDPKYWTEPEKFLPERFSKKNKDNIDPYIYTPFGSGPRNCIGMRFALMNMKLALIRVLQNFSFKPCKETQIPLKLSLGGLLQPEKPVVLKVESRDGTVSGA

cells [4] = assay type: functional, cell-based
cells [5] = assay type: functional, cell-based; remark: listed apart in the source
[6] = blockers of HIV-1 envelope-mediated cell-cell fusion – cherry-pick, dose response (AID 652057); assay type: functional, cell-based
[7] = HIV-1 AD8 envelope cell-cell fusion blockers – cherry-pick, dose response (AID 652062); assay type: functional, cell-based;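 note: luciferase signal from cell-cell fusion driven by HIV-1 clade B AD8 Env; potency is for inhibitors of fusion seen as a drop in luminescence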
[8] = off-target signal loss in HeLa-CEM21 co-culture – HeLa F-luc CTL cells, cherry-picked, counter-screen for HIV-1 Env fusion inhibitor project, dose response (AID 652040); assay type: functional, cell-based;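 note: potency for signal decrease marking cytotoxic or nonspecific inhibition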
[9] = blockers of HIV-1 ZM109 envelope-driven cell-cell fusion – HeLa effector, CEM target cells, luciferase, cherry-pick, dose response (AID 652058); assay type: functional, cell-based;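 note: luciferase signal from HIV-1 Env mediated cell-cell fusion of effector and target cells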
[10] = biological target: Heat shock protein HSP 90-alpha (Homo sapiens, UniProt P07900); assay type: functional, organism-based
cells [11] = assay type: functional
[12] = THP-1 cell cytotoxicity, dose response, cytotoxicity control for non-replicating M. tuberculosis project (AID 489025); assay type: functional
Cytochrome P450 1A2 = biological target: T2, Cytochrome P450 1A2 (Homo sapiens, UniProt P05177);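 note: PubChem cytochrome P450 panel assay, CYP1A2 panel member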
T2 sequence (P05177 whole entry): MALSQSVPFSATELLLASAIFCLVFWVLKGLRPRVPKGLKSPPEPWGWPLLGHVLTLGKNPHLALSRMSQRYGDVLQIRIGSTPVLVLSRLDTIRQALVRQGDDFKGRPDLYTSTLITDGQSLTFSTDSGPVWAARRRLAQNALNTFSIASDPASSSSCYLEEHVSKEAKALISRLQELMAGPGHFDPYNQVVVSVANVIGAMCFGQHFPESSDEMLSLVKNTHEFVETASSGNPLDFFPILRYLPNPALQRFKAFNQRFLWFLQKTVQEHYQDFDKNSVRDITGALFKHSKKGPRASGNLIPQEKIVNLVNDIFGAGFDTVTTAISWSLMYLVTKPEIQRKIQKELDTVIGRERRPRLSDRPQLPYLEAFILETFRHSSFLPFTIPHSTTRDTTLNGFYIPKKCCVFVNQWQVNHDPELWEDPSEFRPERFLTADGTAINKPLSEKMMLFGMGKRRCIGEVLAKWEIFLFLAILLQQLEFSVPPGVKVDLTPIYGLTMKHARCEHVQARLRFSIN

[13] = biological target: T3, Mannose-6-phosphate isomerase (Homo sapiens, UniProt P34949); experiment: MPI inhibition at elevated mannose 6-phosphate – biochemical, fluorescence intensity, high mannose 6-phosphate, primary screen (AID 1220)
T3 sequence (P34949 whole entry): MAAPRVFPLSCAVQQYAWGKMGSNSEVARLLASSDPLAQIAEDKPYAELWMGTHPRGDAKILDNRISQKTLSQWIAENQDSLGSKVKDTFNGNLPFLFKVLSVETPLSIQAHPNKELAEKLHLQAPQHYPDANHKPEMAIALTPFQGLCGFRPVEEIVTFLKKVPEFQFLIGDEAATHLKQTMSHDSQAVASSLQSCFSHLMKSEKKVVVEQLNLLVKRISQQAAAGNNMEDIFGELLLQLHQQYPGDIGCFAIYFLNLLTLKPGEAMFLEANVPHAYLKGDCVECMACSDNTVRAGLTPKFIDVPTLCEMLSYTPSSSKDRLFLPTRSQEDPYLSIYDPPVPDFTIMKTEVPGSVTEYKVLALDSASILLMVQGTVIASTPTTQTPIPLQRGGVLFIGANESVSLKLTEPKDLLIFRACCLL

Paired box protein Pax-8 = Paired box protein Pax-8 (Homo sapiens, UniProt Q06710); experiment: PAX8 transcriptional activity inhibition in RMG-I – RMG-I cells, luciferase, cherry-pick, dose response (AID 687027); assay type: functional, cell-based;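 note: luciferase reporter driven by Pax8 target thyroperoxidase promoter measured by SteadyGlo luminescence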
Paired box protein Pax-8, sequence (Q06710 whole entry): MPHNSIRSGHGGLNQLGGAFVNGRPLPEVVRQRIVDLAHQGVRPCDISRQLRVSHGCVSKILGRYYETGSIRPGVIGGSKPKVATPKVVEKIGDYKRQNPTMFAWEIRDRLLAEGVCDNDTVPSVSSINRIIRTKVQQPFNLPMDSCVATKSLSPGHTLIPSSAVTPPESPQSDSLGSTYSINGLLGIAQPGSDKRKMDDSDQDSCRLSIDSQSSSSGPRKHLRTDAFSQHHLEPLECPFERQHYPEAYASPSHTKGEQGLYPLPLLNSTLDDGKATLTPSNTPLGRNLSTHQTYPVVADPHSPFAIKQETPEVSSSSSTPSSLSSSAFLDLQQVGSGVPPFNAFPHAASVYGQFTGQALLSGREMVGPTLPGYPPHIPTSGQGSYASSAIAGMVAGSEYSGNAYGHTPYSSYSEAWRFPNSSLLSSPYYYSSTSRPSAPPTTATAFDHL

[14] = OVCAR8 cell viability loss – plate reader, dry powder samples, PAX8 project, dose response (AID 743197); assay type: functional, cell-based; details: OVCAR-8
[15] = general cell-killing toxicity readout – plate reader, dry powder samples, cytotoxicity control for PAX8 inhibitor project, dose response (AID 743021); assay type: functional, cell-based

In the case of Cc1cc(=O)oc2c3c(cc(OCC(=O)Nc4ccc(CCO)cc4)c12)OC(C)(C)CC3, the AC50 [1] is reported as > 70 µM (inactive) and the AC50 [2] is reported as > 70 µM (inactive).

With CCOC(=O)c1c(-c2ccc(C)c(C)c2)csc1NC(=O)C1CC=CCC1C(=O)O (stereo not drawn) the IC50 (Genome polyprotein) was 43.5 µM (active) and the IC50 (Leucine aminopeptidase) was 10.3 µM (active).

In the case of CN(C)c1ccc(NC(=O)/C=C/c2ccccc2Cl)cc1, the IC50 [3] is reported as > 54 µM (active).

In the case of CC1(C)CC[C@]2(C(=O)O)CC[C@]3(C)C(=CCC4[C@@]5(C)CC[C@H](O)C(C)(C)C5[C@H](O)C[C@]43C)C2C1 (stereo partly drawn), the AC50 (Cytochrome P450 3A4) is reported as 25.1 µM (inconclusive).

In the case of CCN(/N=C/c1ccc(N(C)C)cc1)c1nc2ccccc2[nH]1, the IC50 [3] is reported as 1.44 µM (active).

With CC(C)(O)C(=O)Nc1ccc([N+](=O)[O-])c(C(F)(F)F)c1 [HYDROXYFLUTAMIDE] the AC50 (Cytochrome P450 3A4) was 25.1 µM (inconclusive).

In the case of CCc1ccc(NC(=O)COC(=O)c2cccs2)cc1, the EC50 (cells [4]) is reported as 79.4 µM (active) and the EC50 (cells [5]) is reported as > 350 µM (not active).

In the case of CC1(C)CCC2(C(=O)O)CC[C@]3(C)C(=CCC4[C@]5(C)CCC(O)C(C)(C)C5C(O)C[C@]43C)C2C1 (stereo partly drawn), the AC50 (Cytochrome P450 3A4) is reported as 2.51 µM (inconclusive).

With CC1(Cc2ccc(Cl)cc2)C(=O)Nc2ccc(S(=O)(=O)NC3CCCCC3)cc21 (stereo not drawn) the AC50 [6] was 0.396 µM (active), the AC50 [7] was 0.674 µM (active) and the AC50 [8] was 1.04 µM (active). The AC50 [9] was 1.12 µM (active).

For Cc1nnc(C)n1/N=C/c1cc(Br)cc(Br)c1O, the AC50 [10] was 1.68 µM (active).

For CN1CC(=O)N=C1NC(=O)C12CC3CC(CC(C3)C1)C2, the IC50 (cells [11]) was 23.9 µM (active) and the CC50 [12] was > 40 µM (active).

With COC(=O)c1cccc(C23CC4(C2)[C@H](CN(C)[C@@H]4c2ccccc2)C3c2ccc(Cl)nc2)c1 (stereo partly drawn) the AC50 (Cytochrome P450 3A4) was 5.01 µM (inconclusive).

For COC(=O)C1(C(=O)OC)C[C@H](c2ccc(OC)cc2)N(Cc2ccccc2OC)[C@@H]1c1ccccc1, the AC50 [6] was 1.37 µM (active), the AC50 [7] was 8.22 µM (active) and the AC50 [8] was 2.48 µM (active). For the same compound, the AC50 [9] was 1.58 µM (active).

For CN(CCO)c1nc(N)c2c(N)nc3c(c2c1C#N)CC(=O)N3C1CCCC1, the AC50 (Cytochrome P450 1A2) was 2.82 µM (inconclusive) and the IC50 [13] was > 50 µM (not active).

In the case of COC(=O)c1cc(OC)c(=O)c2c(OC)c(OC)ccc2c1 [METHYL 7-DESOXYPURPUROGALLIN-7-CARBOXYLATE TRIMETHYL ETHER], the AC50 (Cytochrome P450 3A4) is reported as 39.8 µM (inconclusive).

In the case of NC(=S)NNC(=O)c1cc(C(F)(F)F)cc(C(F)(F)F)c1, the EC50 (cells [4]) is reported as > 350 µM (not active) and the EC50 (cells [5]) is reported as > 350 µM (not active).

In the case of O=c1cc(-c2ccccc2O)oc2c(O)c(O)ccc12, the AC50 (Cytochrome P450 3A4) is reported as 31.6 µM (inconclusive).

For COCCN1C(=O)Cc2c1nc(N)c1c(N)nc(N3CCN(c4ccc(F)cc4)CC3)c(C#N)c21, the IC50 [13] was > 50 µM (not active).

In the case of C[C@@H]1CCCCO[C@@H](CN(C)Cc2ccccc2)[C@H](C)CN([C@H](C)CO)C(=O)c2cc(NC(=O)Nc3ccc(C(F)(F)F)cc3)ccc2O1, the AC50 (Paired box protein Pax-8) is reported as 4.61 µM (active) and the AC50 [14] is reported as > 70 µM (inactive).

With CCCCCCN1C[C@H](n2cc(-c3ccc(F)cc3)nn2)[C@@H](O)C[C@@H]1c1ccc(Cl)cc1 the AC50 [1] was 10.3 µM (active) and the AC50 [2] was 25.8 µM (active).

In the case of COc1ccc(OC)c(NC(=O)CCc2nnc3ccc(NCc4ccco4)nn23)c1, the EC50 (cells [4]) is reported as > 350 µM (not active) and the EC50 (cells [5]) is reported as > 350 µM (not active).

With CCOc1cc2c(C#N)c(N3CCCCC3)nc(N)c2c(N)n1 the IC50 [13] was > 50 µM (not active).

With COC(=O)c1ccc(N2C(=O)CC(N3CCC(O)(c4ccc(Br)cc4)CC3)C2=O)cc1 (stereo not drawn) the AC50 [10] was 2.85 µM (active).

For CCCCCCC(=O)N(O)C1CC(=O)N(c2ccc(Cl)cc2)C1=O (stereo not drawn), the AC50 [10] was 1.64 µM (active).

For COc1ccccc1N1CCN(CCCNC(=O)C2CCCN(c3ncnc4c3nc3n4CCCCC3)C2)CC1 (stereo not drawn), the EC50 (cells [4]) was > 350 µM (not active) and the EC50 (cells [5]) was > 350 µM (not active).

In the case of COCCNc1nc(C)nc2c1nc(-c1ccccc1)n2CCCN1CCCCC1C (stereo not drawn), the AC50 (Cytochrome P450 3A4) is reported as 3.98 µM (inconclusive).

In the case of CCOc1ccc(N2C(=O)CC(Sc3nc(C)cc(C)n3)C2=O)cc1 (stereo not drawn), the EC50 (cells [4]) is reported as > 350 µM (not active) and the EC50 (cells [5]) is reported as > 350 µM (not active).

For CCCNC(=O)Nc1ccc2c(c1)OC[C@@H](C)N(Cc1ccc(-c3ccccn3)cc1)C[C@@H](C)[C@H](OC)CN(C)C2=O, the AC50 [15] was 41.7 µM (active) and the AC50 (Paired box protein Pax-8) was 30.1 µM (active).

For COc1ccc(-c2nnc(SCC(=O)Oc3ccc(C)cc3)o2)cc1, the AC50 [10] was 2.53 µM (active).

With COc1cccc(C(=O)Nc2cc(Cl)c(O)c(Cl)c2)c1 the IC50 [3] was 3.46 µM (not active).
